# Reference: patent US20250018030A1, “PHARMACEUTICAL COMPOSITION FOR PROMOTING CANCER IMMUNOTHERAPY AND METHOD FOR PROMOTING CANCER IMMUNOTHERAPY” (China Medical University, priority 2023, published 2025)
# Legend:
# Pan18 cells = test: Tumorigenicity assay, Pan18 subcutaneous implantation (PDAC-bearing mice); assay type: in vivo
# Protocol: (§1) Monoclonal antibodies were purchased from BD Biosciences or eBioscience. For intracellular cytokine staining (ICS), cells were first restimulated by PMA/ionomycin for 5 hours in the presence of GolgiStop (BD Biosciences), followed by surface epitope staining markers before being fixed/permeabilized (BD Cytofix/Cytoperm™) and stained with antibodies targeting intracellular antigens. Cells were finally fixed with 1.5% formaldehyde for 10 minutes at room temperature and analyzed on a FACSVerse flow cytometer (BD Bioscience). Data were analyzed using FlowJo software (Tree Star Inc.).
# For Pan18-subcutaneous implantation, 5×10^5 Pan18 cells were administered to wild-type (WT) or IL-17^−/− mice. Genipin (5 mg/kg, 10 mg/kg, or 30 mg/kg, i.p., every two days) was administered to Pan18-bearing mice for 3 weeks. For 3036-subcutanous implantation, 2×10^5 3036 cells were administered to WT mice. Genipin (10 mg/kg, i.p., every two days) and recombinant anti-IL-17 receptor antibody (αIL-17RA) (1 mg/kg, i.v., once a week) were administered to 3036-bearing mice for 3 weeks. Tumor volumes were evaluated every 2 days. For the orthotopic tumor modelling, mice pancreases were injected with 2×10^5 Pan18 cells and monitored for tumor growth weekly using IVIS kinetics imaging system (Caliper Life-Sciences). Genipin (10 mg/kg, i.p., every two days) or αIL-17RA (1 mg/kg, i.v., once a week) was administered 1 week after tumor implantation. Mice were sacrificed 35 days after tumor induction and tumors weighed. For spontaneous pancreatic cancer model, Cre-dependent conditional knockin mutations of KrasG12D Kras^+/LSLG12D mice (B6; 129-Kras2) were obtained from the Mouse Models of Human Cancer Consortium. Elas-CreERT; Kras^+/LSLG12D mice was generated by breeding Kras^+/LSLG12D mice with Elas-CreER mice obtained from the Level Transgenic Center. To induce the expression of Kras^+/LSLG12D in acinar cells, 5-week-old Elas-CreERT; Kras^+/LSLG12D male mice were injected with 100 μl of tamoxifen (20 mg/ml, i.p., three times per week) for 1 week. To induce chronic inflammation and tumors, 100 μl of cerulein (50 μg/ml, i.p., six times per week) (BACHEM) was given to the mice for 3 weeks. Then, the mice were injected with genipin (10 mg/kg, i.p., every two days) and αIL-17RA (1 mg/kg, i.v., once a week) until the end of the experiment, and overall survival was monitored. For genetically CD4/CD8-specific UCP2 deletion tumor modelling, we generated CD4Cre×UCP2^f/f mice by crossing loxP-UCP2-loxP mice with CD4Cre mice. CD4Cre×UCP2^f/f, WT, and loxP control mice underwent subcutaneous implantation of 2×10^5 Pan18 cells, followed by treatment with αIL-17RA (1 mg/kg, i.v., once a week) for 3 weeks. For melanoma modelling, IL-17/-and WT mice underwent subcutaneous implantation of 5×10^5 B16F10 cells, followed by treatment with genipin (10 mg/kg, i.p., every two days) for 3 weeks. For CD8 depletion tumor modelling, IL-17^−/− mice underwent subcutaneous implantation of 2×10^5 Pan18 cells, followed by treatment with genipin (10 mg/kg, i.p., every two days) and CD8 neutralizing antibody (5 mg/kg, i.v., once a week) for 3 weeks. Tumor volumes were evaluated every 3 days.
# Serum levels of IFN-γ, IL-17, TNF-α, IL-12, IL-6, and TGF-β were measured using commercial enzyme-linked immunosorbent assay (ELISA) kits (BD Biosciences; R&D systems; BioLegend) according to the manufacturer's protocol.
# Total protein concentration of the tumor lysates was quantified by a Bradford assay. Tumoral chemokine profiles were determined by analyzing 250 μg protein from the tumor lysates using a Proteome Profiler™ Mouse Chemokine Array Kit (ARY020, R&D Systems) according to the manufacturer's instructions. […]
# Th1 cells = test: Cytokine staining of genipin-treated skewed Th1 cells; assay type: cell-based, Mouse; settings: data not shown
# Protocol: Mouse lymph nodes and spleens were harvested, and naïve CD4 or CD8 T cells isolated via magnetic bead separation (STEMCELL Technologies) and activated in α-CD3 (10 μg/ml) and α-CD28 (1 μg/ml) pre-coated 96-well plates. Skewing conditions were as follows: Th1 cells/Tc1 cells ([…] 10 μ/ml α-IL-4), Th2 cells/Tc2 cells (20 ng/ml IL-4 and 10 μ/ml α-IFN-γ), Th17 cells/Tc17 cells (20 ng/ml IL-6, 1.25 ng/ml […], 20 ng/ml IL-1β, 20 ng/ml IL-23, 10 μg/ml α-IFN-γ and 10 μg/ml α-IL-4), and Treg cells (5 ng/ml TGF-β, 10 μg/ml α-IFN-γ and 10 μg/ml α-IL-4) in the indicated medium. Cells were cultured for 4-5 days followed by treatment with genipin (3.125 μM, 6.25 μM, 12.5 μM) or DMSO for 12-16 hours.
# as §1
# Tc1 cells = test: RNA-seq gene expression analysis of genipin-treated Tc1 cells; assay type: cell-based, Mouse
# Protocol: For RNA-seq analysis, the differential gene expression analysis was conducted by RNA-seq quantification following the procedure of Illumina and was performed by Genomics (Taiwan). Low-quality bases and sequencing adapters in the raw data generated from the Illumina sequencer were removed, and the final library quality was assessed on the Agilent Bioanalyzer 2100 system. The gene expression profiles in the genipin-treated and control Tc1 cells were analyzed and compared. The differentially expressed genes were calculated by EBSeq, and functional analysis, such as (gene ontology) GO analysis, was performed using cluster Profiler. For real-time PCR, total RNA was extracted using the RNeasy Micro Kit (Qiagen), and cDNA was synthesized with the PrimeScript™ RT reagent kit (TakaRa). Real-time PCR amplification of IFN-γ was performed in triplicate using TaqMan Gene Expression Assay (Mm01168134_m1) in a Step One Plus system (Applied Biosystems). 18S primers were used as endogenous controls, and the relative gene expression was calculated using the 2^ΔΔCt method.
# [1] = IL-17−/− mice, genipin 5 or 10 mg/kg, dose-dependent, FIG. 5C
# [2] = IL-17−/− mice, genipin, data not shown
# [3] = WT mice, escalating doses of genipin, FIG. 3S
# [4] = genipin-treated Tc1 cells, FIG. 2D
smiles,measurement,setting,value
COC(=O)C1=CO[C@@H](O)[C@@H]2C(CO)=CC[C@H]12 [genipin],"Tumor growth (tumor volume, tumor weight)","Pan18 cells; IL-17−/− mice, genipin 5 or 10 mg/kg i.p. every two days, 3 weeks, FIG. 5A-5B",synergistic effect to inhibit tumor growth
same,Serum IFN-γ,Pan18 cells; [1],increased
same,Serum IL-12,Pan18 cells; [1],increased
same,Serum TNF-α,Pan18 cells; [1],increased
same,Numbers of Tc1 cells,"Pan18 cells; IL-17−/− mice, genipin, FIG. 5D",increased numbers of Tc1 cells
same,Numbers of MDSC,"Pan18 cells; IL-17−/− mice, genipin, FIG. 5G",decreased numbers of MDSC
same,IL-17-ablation driven change in CCL2 level,Pan18 cells; [2],had no effects
same,IL-17-ablation driven change in CXCL10 level,Pan18 cells; [2],had no effects
same,Absolute numbers of Tc1 cells,"Pan18 cells; WT mice, escalating doses of genipin i.p. every two days, 3 weeks, FIG. 3A-3C",increases in the absolute numbers
same,Serum IFN-γ,Pan18 cells; [3],increased
same,Serum IL-6,Pan18 cells; [3],increased
same,Serum IL-12,Pan18 cells; [3],increased
same,Serum TNF-α,Pan18 cells; [3],increased
same,Serum IL-17,"Pan18 cells; WT mice, escalating doses of genipin, end of experiment, FIG. 3S",increased
same,"Tumorigenesis (tumor volume, tumor weight)","Pan18 cells; WT mice, genipin alone, FIG. 3T-3U",did not suppress tumorigenesis
same,Absolute numbers of Th1 cells,"Pan18 cells; WT mice, genipin i.p. every two days, 3 weeks, FIG. 3D-3F",increases in the absolute numbers
same,Numbers of Tc17 cells,"Pan18 cells; WT mice, genipin i.p. every two days, 3 weeks, FIG. 3G-3I",increased
same,Numbers of Th17 cells,"Pan18 cells; WT mice, genipin i.p. every two days, 3 weeks, FIG. 3J-3L",increased
same,Numbers of Treg cells in the lymph nodes and spleens,"Pan18 cells; WT mice, genipin i.p., FIG. 3M-3O",decreased
same,Numbers of MDSC in the lymph nodes and spleens,"Pan18 cells; WT mice, genipin i.p., FIG. 3P-3R",decreased
same,Tumor infiltrating MDSC,"Pan18 cells; WT mice, genipin i.p., tumor",no changes
same,Tumor infiltrating Tc1 cells,"Pan18 cells; WT mice, genipin i.p., tumor",no changes
same,Tumor infiltrating Th1 cells,"Pan18 cells; WT mice, genipin i.p., tumor",no changes
same,IFN-γ in Th1 cells,Th1 cells,increased IFN-γ
same,"Expression of genes that control IFN-γ signaling, leukocyte activation and bioenergetic metabolism (GOBP enrichment)","Tc1 cells; genipin 12.5 μM, FIG. 2C",correlated positively
same,"Expression of genes related to T cell activation and migration (Tbx21, Ccl5, Eomes, Il12rb2, Ctla2a, Ctla2b)",Tc1 cells; [4],augmented the expression
same,"Expression of glycolytic pathway genes (Hk2, Gck, Pfkl, Aldoc, Pgam1, Eno2, Ldha)",Tc1 cells; [4],increased expression
